Results taken from patent US5756145A, “Durable, Resilient and effective antimicrobial coating for medical devices and method of coating therefor” (priority 1995, dated 1998).
Where a name gives a salt, the structure may show the parent alone.

Tests used:
Candida albicans [1] = assay: zones of inhibition on agar plates, Candida albicans (Examples 1, 2, 5, 7); settings: Init., triple layer, Table 7
Experimental: (§1) Selected single layer and triple layer coated cylinders were then placed on agar plates that had been freshly overlaid with one of the microorganisms shown below in Table 1.
(§2) The coated cylinders were then removed from the serum and placed on agar plates that had been freshly overlaid with one of the microorganisms shown below in Table 2.
(§3) The devices and coating solution were preheated to 45° C. After coating the devices were allowed to dry for about four hours. […] The devices were then allowed to dry for an additional two hours. The resilient coated layer was applied over the durable coated layer by dipping the devices for approximately 5-10 seconds in a collodion solution. The devices were then allowed to dry for an additional two hours. Selected coated devices were then incubated in human serum at 37° C. for one and three weeks.

Pseud. aeruginosa = assay: zones of inhibition on agar plates, Pseud. aeruginosa (Examples 1, 2, 5, 7); settings: P. aerug, Init., triple layer, Table 7
Experimental: as §1, §2, §3

Staph. epidermidis = assay: zones of inhibition on agar plates, Staph. epidermidis (Examples 1, 2, 5, 7); settings: S. epidermidis, Init., triple layer, Table 7
Experimental: as §1, §2, §3

[2] = tested on: bacterial and fungal organisms; settings: cited from earlier work; for bacteriostatic/bactericidal nature / spectrum of antimicrobial activity: general statement; for effect of organic matter on effectiveness: organic matter such as blood
protein synthesis = settings: general statement; cited from earlier work
Escherichia coli = settings: cited from earlier work
[3] = cited from earlier work; for solubility in organic solvents: organic solvents/solutions
[4] = light; cited from earlier work
Pseudomonas aeruginosa = settings: cited from earlier work
Candida albicans [5] = settings: cited from earlier work
Staphylococcus aureus = settings: cited from earlier work
[6] = tested on: bacterial DNA-dependent RNA polymerase; settings: general statement; cited from earlier work

Q: With `[H]/N=C(\N/C(=N/[H])NCCCCCCNC(=N)NC(=N)Nc1ccc(Cl)cc1)Nc1ccc(Cl)cc1` [Chlorhexidine] as the molecule, how does the Zones of inhibition (Candida albicans [1]) read?
A: 26 m.m.

Q: And the Zones of inhibition (Pseud. aeruginosa)?
A: 20 m.m.

Q: And the Zones of inhibition (Staph. epidermidis)?
A: 22 m.m.

Q: What about the bacteriostatic/bactericidal nature [2] of the same molecule?
A: very rapid bactericidal activity

Q: What about the “spectrum of antimicrobial activity” value [2] of the same molecule?
A: broad range of microorganisms, including gram-positive bacteria (such as staphylococci, Enterococcus species), gram-negative bacteria (such as Escherichia coli and Pseudomonas aeruginosa) and Candida species

Q: And the “effect of organic matter on effectiveness” value [2]?
A: not affected by the presence of organic matter

Q: What does the source list for `CC[C@H]1OC(=O)[C@H](C)[C@@H](O[C@H]2C[C@@](C)(OC)[C@@H](O)[C@H](C)O2)[C@H](C)[C@@H](O[C@@H]2O[C@H](C)C[C@H](N(C)C)[C@H]2O)[C@](C)(O)C[C@@H](C)C(=O)[C@H](C)[C@@H](O)[C@]1(C)O` [Erythromycin]?
A: spectrum of antimicrobial activity [2]: active against a variety of gram-positive and gram-negative bacteria; inhibition of protein synthesis (protein synthesis): inhibition of protein synthesis without affecting nucleic acid synthesis

Q: Which bacteriostatic/bactericidal nature [2] does the source give for `CC1=CCC(C(C)(C)O)CC1` (stereo not drawn) [α-Terpineol, α-α-4-trimethyl-3-cyclohexine-1-methanol] here?
A: bacteriostatic

Q: What about the “spectrum of antimicrobial activity” value [2] of the same molecule?
A: broad spectrum antimicrobial activity against gram-positive bacteria (such as staphylococci and Enterococcus species), gram-negative bacteria (such as Escherichia coli and Pseudomonas aeruginosa) and Candida species

Q: With `Cn1sccc1=O` [Methylisothiazolone, 2-Methylisothiazolone Hydrochloride] as the molecule, how does the MIC (Escherichia coli) read?
A: 40 µg/mL

Q: What about the “solubility in acetic acid” value ([3]; acetic acid (rifampin: acetic aqueous solutions)) of the same molecule?
A: not soluble

Q: What about the “solubility in formic acid” value ([3]; formic acid) of the same molecule?
A: soluble

Q: What about the “solubility in organic solvents” value [3] of the same molecule?
A: soluble

Q: What about the photosensitivity [4] of the same molecule?
A: photosensitive

Q: And the MIC (Pseudomonas aeruginosa)?
A: 80 µg/mL

Q: And the MIC (Candida albicans [5])?
A: 320 µg/mL

Q: What about the MIC (Staphylococcus aureus) of the same molecule?
A: 80 µg/mL

Q: What about the bacteriostatic/bactericidal nature [2] of the same molecule?
A: bacteriostatic

Q: And the “spectrum of antimicrobial activity” value [2]?
A: broad spectrum antimicrobial activity

Q: Which “inhibition of bacterial DNA-dependent RNA polymerase” value [6] does the source give for `CO[C@H]1/C=C/O[C@@]2(C)Oc3c(C)c(O)c4c(O)c(c(/C=N/N5CCN(C)CC5)c(O)c4c3C2=O)NC(=O)/C(C)=C\C=C\[C@H](C)[C@H](O)[C@@H](C)[C@@H](O)[C@@H](C)[C@H](OC(C)=O)[C@@H]1C` [Rifampin] here?
A: inhibits bacterial DNA-dependent RNA polymerase activity

Q: And the bacteriostatic/bactericidal nature [2]?
A: bactericidal

Q: What about the “spectrum of antimicrobial activity” value [2] of the same molecule?
A: broad spectrum activity against a wide range of gram-positive and gram-negative bacteria

Q: What does the source list for `Cc1cc(O)cc(C)c1Cl` [Chloroxylenol, 4-chloro, 3,5-dimethyl phenol]?
A: Zones of inhibition (Candida albicans [1]): 28 m.m.; Zones of inhibition (Pseud. aeruginosa): 13 m.m.; Zones of inhibition (Staph. epidermidis): 32 m.m.; spectrum of antimicrobial activity [2]: good antimicrobial activity against gram-positive bacteria and fungi, and fair activity against gram-negative bacteria; effect of organic matter on effectiveness [2]: minimally affected by organic matter

Q: With `Oc1c(Cl)cc(Cl)c(Cl)c1Cc1c(O)c(Cl)cc(Cl)c1Cl` [Hexachlorophene] as the molecule, how does the “solubility in organic solvents” value [3] read?
A: soluble

Q: What about the solubility in water ([3]; water) of the same molecule?
A: soluble

Q: What about the bacteriostatic/bactericidal nature [2] of the same molecule?
A: bacteriostatic

Q: And the “spectrum of antimicrobial activity” value [2]?
A: active against staphylococci and other gram-positive bacteria

Q: Which bacteriostatic/bactericidal nature [2] does the source give for `Cc1ccc(C(C)C)c(O)c1` [Thymol, 5-methyl-2 isopropyl phenol] here?
A: bacteriostatic

Q: And the “spectrum of antimicrobial activity” value [2]?
A: broad spectrum antimicrobial activity against gram-positive bacteria (such as staphylococci and Enterococcus species), gram-negative bacteria (such as Escherichia coli and Pseudomonas aeruginosa) and Candida species

Q: Which bacteriostatic/bactericidal nature [2] does the source give for `CN(C)c1ccc(O)c2c1C[C@H]1C[C@H]3[C@H](N(C)C)C(O)=C(C(N)=O)C(=O)[C@@]3(O)C(O)=C1C2=O` [Minocycline] here?
A: primarily bacteriostatic

Q: And the “spectrum of antimicrobial activity” value [2]?
A: active against a wide range of gram-negative and gram-positive organisms

Q: And the “inhibition of protein synthesis” value (protein synthesis)?
A: inhibiting protein synthesis

Q: Which “spectrum of antimicrobial activity” value [2] does the source give for `CCOc1ccc2ccccc2c1C(=O)N[C@@H]1C(=O)N2[C@@H]1SC(C)(C)[C@@H]2C(=O)O` [Nafcillin] here?
A: effective against both penicillin-G-sensitive and penicillin-G-resistant strains of Staphylococcus aureus as well as against pneumococcus, beta-hemolytic streptococcus, and alpha streptococcus
